In US7452862B2, “Conformationally-controlled biologically active macrocyclic small molecules as motilin antagonists or ghrelin agonists” (Tranzyme Pharma, Inc., priority 2003, dated 2008):

Experiments:
[1] = target: T1, human motilin receptor (Homo sapiens, UniProt O43193); experiment: Competitive radioligand binding assay (motilin receptor), Method B1; details: read-out: Binding Affinity [Ki (μM)]
T1 construct: purchased PerkinElmer 6110544; host or cells: CHO cells, stably transfected
Method: (§1) The compounds of the present invention were evaluated for their ability to interact at the human motilin receptor and the human ghrelin receptor utilizing competitive redioligand binding assays as described in Method B1 and B2, respectively. Further characterization of the interaction can be performed utilizing the functional assays described in Methods B3 and B4 for the motilin and ghrelin receptors, respectively. All of these methods can be conducted, if so desired, in a high throughput manner to permit the simultaneous evaluation of many compounds.
Competitive Radioligand Binding Assay (Motilin Receptor)
• Membranes were prepared from CHO cells stably transfected with the human motilin receptor and utilized at a quantity of 1.5 μg/assay point. [PerkinElmer™ SignalScreen® Product #6110544, PerkinElmer, Inc. Wellesley, MA] • [^125I]-Motilin (PerkinElmer, #NEX-378); final concentration: 0.04-0.06 nM • Motilin (Bachem™, #H-4385, Bachem Bioscience Inc., King of Prussia, PA.); final concentration: 1 μM • Multiscreen® Harvest plates-GF/B (Millipore™, #MAHFB1H60, Billerica, MA) • Deep-well polypropylene titer plate (Beckman Coulter™,#267006, Fullerton, CA) • TopSeal-A™ (PerkinElmer, #6005185, Wellesley, MA) • Bottom seal (Millipore, #MATAH0P00) • MicroScint-0™(PerkinElmer,#6013611, Wellesley, MA) • Binding Buffer: 50 mM Tris-HCl (pH 7.4), 10 mM MgCl2, 1 mM EDTA, 0.1% BSA Assay Volumes: • 150 μL of membranes diluted in binding buffer • 10 μL of compound diluted in binding buffer • 10 μL of radioligand ([^125I]-Motilin) diluted in binding buffer Final Test Concentrations (N=11) for Compounds: • 10, 5, 2, 1, 0.5, 0.2, 0.1, 0.05, 0.02, 0.01, 0.005 μM. Compound Handling:
(§2) Compounds were provided frozen on dry ice at a stock concentration of 10 mM diluted in 100% DMSO and stored at −20° C. until the day of testing. On the test day, compounds were allowed to thaw at room temperature and than diluted in assay buffer according to the desired test concentrations. Under these conditions, the maximum final DMSO concentration in the assay was 0.5%.
In deep-well plates, diluted cell membranes (1.5 μg/mL) are combined with 10 μL of either binding buffer (total binding, N=5), 1 μM motilin (non-specific binding, N=3) or the appropriate concentration of test compound. The reaction is initiated by addition of 10 μl of [^125I]-motilin (final conc. 0.04-0.06 nM) to each well. Plates are sealed with TopSeal-A™, vortexed gently and incubated at room temperature for 2 hours. The reaction is arrested by filtering samples through pre-soaked (0.3% polyethyleneimine, 2 h) Multiscreen®Harvest plates using a Tomtec® Harvester (Tomtec, Hamden, CT), washed 9 times with 500 μL of cold 50 mM Tris-HCI (pH 7.4), and than plates are air-dried in a fumehood for 30 minutes. A bottom seal is applied to the plates prior to the addition of 25 μL of MicroScint-0 ® to each well. Plates are then sealed with TopSeal-A™ and counted for 30 sec per well on a TopCount® Microplate Scintillation and Luminescence Counter (PerkinElmer, Wellesley, MA) where results are expressed as counts per minute (cpm).
Data are analyzed by GrapbPad™ Prism® (GraphPad Software, San Diego, CA) using a variable slope non-linear regression analysis.
[formula] where total and non-specific binding represent the cpm obtained in the absence or presence of 1 μM motilin, respectively.

[2] = target: T2, human ghrelin receptor (hGHS-R1a) (Homo sapiens, UniProt Q92847); experiment: Competitive radioligand binding assay (ghrelin receptor), Method B2; details: read-out: Binding Affinity [Ki (μM)]
T2 construct: purchased PerkinElmer BioSignal RBHGHSM, lot#1887; host or cells: HEK-293 cells, stably transfected
T2 sequence (Q92847 whole entry): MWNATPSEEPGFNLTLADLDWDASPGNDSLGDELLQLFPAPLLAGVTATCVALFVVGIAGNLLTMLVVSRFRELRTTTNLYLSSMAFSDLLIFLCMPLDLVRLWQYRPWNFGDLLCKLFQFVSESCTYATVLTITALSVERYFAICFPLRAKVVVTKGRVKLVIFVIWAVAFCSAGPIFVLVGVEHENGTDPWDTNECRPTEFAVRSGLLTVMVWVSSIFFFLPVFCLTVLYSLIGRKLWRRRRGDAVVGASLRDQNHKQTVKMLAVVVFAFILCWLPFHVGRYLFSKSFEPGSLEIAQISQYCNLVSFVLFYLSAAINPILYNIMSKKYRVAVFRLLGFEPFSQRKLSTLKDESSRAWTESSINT
Method: as §1
Competitive Radioligand Binding Assay (Ghrelin Receptor)
The competitive binding assay at the human growth hormone secretagogue receptor (hGHS-R1a) was carried out analogously to assays described in the literature. (Bednarek M A et al. (2000), Structure-function studies on the new growth hormone-releasing peptide ghrelin: minimal sequence of ghrelin necessary for activation of growth hormone secretagogue receptor 1 a; J Med Chem 43:43704376. Palucki B L et al. (2001), Spiro(indoline-3,4′-piperidine) growth hormone secretagogues as ghrelin mimetics; Bioorg Med Chem Lett 11:1955-1957.)
• Membranes (GHS-R/HEK 293) were prepared from HEK-293 cells stably transfected with the human ghrelin receptor (hGHS-Rla). These membranes were provided by PerkinElmer BioSignal® (#RBHGHSM, lot#1887, PerkinlElmer, Wellesley, MA) and utilized at a quantity of 0.71 μg/assay point. • [^125I]-Ghrelin (PerkinElmer, #NEX-388); final concentration: 0.0070-0.0085 nM • Ghrelin(Bachem, #H-4864, Bachem Bioscience Inc., King of Prussia, PA); final concentration: 1 μM • Multiscreen® Harvest plates-GF/C (Millipore, #MAHFC1H60, Billerica, MA) • Deep-well polypropylene titer plate (Beckman Coulter, #267006, Fullerton, CA) • TopSeal-A™ (PerkinElmer, #6005185, Wellesley, MA) • Bottom seal (Millipore, #MATAH0P00) • MicroScint-0™ (PerkinElmer, #6013611, Wellesley, MA) • Binding Buffer: 25 mM Hepes (pH 7.4), 1 mM CaCl2, 5 mM MgCl2, 2.5 mM EDTA, 0.4% BSA Assay Volumes
Competition experiments were performed in a 300 μL filtration assay format. • 220 μL of membranes diluted in binding buffer • 40 μL of compound diluted in binding buffer • 40 μL of radioligand ([^125I]-Ghrelin) diluted in binding buffer
Final test concentrations (N=1) for compounds of the present invention: • 10, 1, 0.5, 0.2, 0.1, 0.05, 0.02, 0.01, 0.005, 0.002, 0.001 μM. Compound Handling
as §2, with “−80°” for “−20°”, “rt overnight” for “room temperature”, “then” for “than”, “maximal” for “maximum”, “0.1%.” for “0.5%.”
In deep-well plates, 220 μL of diluted cell membranes (final concentration: 0.71 μg/well) were combined with 40 μL of either binding buffer (total binding, N =5), 1 μM ghrelin (non-specific binding, N =3) or the appropriate concentration of test compound (N =2 for each test concentration). The reaction was initiated by addition of 40 μL of [^125I]-ghrelin (final conc. 0.0070-0.0085 nM) to each well. Plates were sealed with TopSeal-A™, vortexed gently and incubated at rt for 30 min. The reaction was arrested by filtering samples through Multiscreen® Harvest plates (pre-soaked in 0.5% polyethyleneimine) using a Tomtec®Harvester (Tomtec, Hamden, CT), washed 9 times with 500 μL of cold 50 mM Tris-HCl (pH 7.4, 4° C), and then plates were air-dried in a fumehood for 30 min. A bottom seal was applied to the plates prior to the addition of 25 μL of MicroScint-0™ to each well. Plates were than sealed with TopSeal-A™ and counted for 30 sec per well on a TopCount® Microplate Scintillation and Luminescence Counter (PerkinElmer, Wellesley, MA) using a count delay of 60 sec. Results were expressed as counts per minute (cpm). […]

T1 sequence (O43193 whole entry): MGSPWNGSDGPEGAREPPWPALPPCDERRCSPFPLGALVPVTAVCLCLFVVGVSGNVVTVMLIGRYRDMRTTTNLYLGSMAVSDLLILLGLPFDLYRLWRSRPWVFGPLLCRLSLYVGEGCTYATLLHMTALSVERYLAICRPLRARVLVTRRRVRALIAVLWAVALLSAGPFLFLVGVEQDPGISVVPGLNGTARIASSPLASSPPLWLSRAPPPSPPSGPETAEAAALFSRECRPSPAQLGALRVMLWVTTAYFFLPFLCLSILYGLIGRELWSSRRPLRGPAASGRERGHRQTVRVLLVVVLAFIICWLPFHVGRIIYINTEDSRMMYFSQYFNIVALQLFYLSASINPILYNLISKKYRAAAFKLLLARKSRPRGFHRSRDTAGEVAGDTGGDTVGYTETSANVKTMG

Row | Compound | Ki [1] [µM] | Ki [2] [µM]
1 | CC(C)[C@H]1NC(=O)[C@@H](Cc2cccc(Cl)c2)NCCOc2ccccc2C[C@@H](C)CNC(=O)[C@H](CC2CC2)NC1=O [compound 211] | 0.001 to 0.1 | –
2 | CC(C)[C@H]1NC(=O)[C@@H](Cc2cccc(Cl)c2)N[C@@H](C)COc2ccccc2CCCNC(=O)[C@H](CNC(=N)N)NC1=O [compound 203] | 0.001 to 0.1 | –
3 | CC(C)[C@H]1NC(=O)[C@@H](Cc2cccc(C(F)(F)F)c2)NCCOc2ccccc2C[C@@H](C)CNC(=O)[C@H](CNC(=N)N)NC1=O [compound 204] | 0.001 to 0.1 | –
4 | CC(C)[C@H]1NC(=O)[C@@H](Cc2cccc(F)c2)N[C@H](C)COc2ccccc2CCCNC(=O)[C@H](CC2CC2)NC1=O [compound 217] | 0.1 to 1 | –
5 | CC(C)[C@H]1NC(=O)[C@@H](Cc2cccc(Cl)c2)NCCOc2ccccc2C[C@@H](O)CNC(=O)[C@H](CC2CC2)NC1=O [compound 216] | 0.001 to 0.1 | –
6 | CC(C)[C@H]1NC(=O)[C@@H](Cc2cccc(F)c2)N[C@@H](C)COc2ccccc2CCCNC(=O)[C@H](CC2CC2)NC1=O [compound 208] | 0.001 to 0.1 | –
7 | CC(C)[C@H]1NC(=O)[C@@H](Cc2cccc(Cl)c2)NCCOc2ccccc2C[C@H](C)CNC(=O)[C@H](CC2CC2)NC1=O [compound 207] | 0.001 to 0.1 | –
8 | CC(C)[C@H]1NC(=O)[C@@H](Cc2cccc(F)c2)NCCOc2ccccc2C[C@@H](C)CNC(=O)[C@H](CC2CC2)NC1=O [compound 214] | 0.001 to 0.1 | –
9 | CC(C)[C@H]1NC(=O)[C@@H](Cc2cccc(Cl)c2)NCCOc2ccccc2C[C@H](O)CNC(=O)[C@H](CC2CC2)NC1=O [compound 215] | 0.001 to 0.1 | –
10 | CC1CNC(=O)[C@H](CC2CC2)NC(=O)[C@@H](C(C)C)NC(=O)[C@@H](Cc2cccc(Cl)c2)NCCOc2ccccc2C1 (stereo partly drawn) [compound 209] | 0.001 to 0.1 | –
11 | CC(C)[C@H]1NC(=O)[C@@H](Cc2cccc(C(F)(F)F)c2)NCCOc2ccccc2C[C@H](C)CNC(=O)[C@H](CNC(=N)N)NC1=O [compound 201] | 0.001 to 0.1 | –
12 | CC(C)[C@H]1NC(=O)[C@@H](Cc2cccc(F)c2)NCCOc2ccccc2C[C@@H](C)CNC(=O)[C@H](CN(C)C)NC1=O [compound 205] | 0.1 to 1 | –
13 | CC(C)[C@H]1NC(=O)[C@@H](Cc2cccc(F)c2)NCCOc2ccccc2C[C@H](O)CNC(=O)[C@H](CC2CC2)NC1=O [compound 218] | 0.1 to 1 | –

Second part, the compound after the results:

Row | Ki [1] [µM] | Ki [2] [µM] | Compound
14 | 0.1 to 1 | – | CC(C)[C@H]1NC(=O)[C@@H](Cc2cccc(F)c2)NCCOc2ccccc2C[C@@H](O)CNC(=O)[C@H](CC2CC2)NC1=O [compound 219]
15 | 0.001 to 0.1 | – | CC1COc2ccccc2CCCNC(=O)[C@H](CC2CC2)NC(=O)[C@@H](C(C)C)NC(=O)[C@@H](Cc2cccc(Cl)c2)N1 (stereo partly drawn) [compound 223]
16 | 0.001 to 0.1 | – | CCC[C@@H]1NC(=O)[C@@H](C(C)C)NC(=O)[C@@H](Cc2ccc(OC)cc2)NC(C)COc2ccccc2CCCNC1=O (stereo partly drawn) [compound 222]
17 | – | 0.001 to 0.1 | CCC(C)C1NCCOc2ccccc2CC(C)CNC(=O)C(Cc2cccc(Cl)c2)NC(=O)C2(CCCC2)NC1=O (stereo not drawn) [compound 257]
18 | 0.1 to 1 | – | CCC[C@@H]1NC(=O)[C@@H](C(C)C)NC(=O)[C@@H](Cc2ccc(O)cc2)NC[C@@H](C)Oc2ccccc2CCCNC1=O [compound 227]
19 | – | 0.001 to 0.1 | CC1COc2ccccc2CCCNC(=O)C(Cc2ccc(F)cc2)NC(=O)C(C)N(C)C(=O)C(C2CC2)N1 (stereo not drawn) [compound 241]
20 | – | 0.1 to 1 | CCC(C)C1NCCOc2ccccc2C(C)CCNC(=O)C(Cc2cccc(Cl)c2)NC(=O)C2(CCCC2)NC1=O (stereo not drawn) [compound 256]
21 | – | 0.001 to 0.1 | CCC(C)[C@@H]1NC[C@@H](C)Oc2ccccc2CCCNC(=O)[C@@H](Cc2ccccc2)NC(=O)[C@@H](C)N(C)C1=O (stereo partly drawn) [compound 242]
22 | 0.1 to 1 | – | CC(C)[C@H]1NC(=O)[C@@H](Cc2cccc(F)c2)NC[C@@H](C)Oc2ccccc2CCCNC(=O)[C@H](CC2CC2)NC1=O [compound 220]
23 | 0.1 to 1 | – | CCC[C@@H]1NC(=O)[C@@H](C(C)C)NC(=O)[C@@H](Cc2ccc(O)cc2)NC[C@H](C)Oc2ccccc2CCCNC1=O [compound 226]
24 | – | 0.001 to 0.1 | CCC(C)C1NCC(C)Oc2ccccc2CCCNC(=O)C(Cc2cccc(Cl)c2)NC(=O)C2(CCCC2)NC1=O (stereo not drawn) [compound 254]
25 | – | 0.001 to 0.1 | CCC(C)[C@@H]1NC[C@H](C)Oc2ccccc2CCCNC(=O)[C@@H](Cc2ccccc2)NC(=O)[C@@H](C)N(C)C1=O (stereo partly drawn) [compound 243]
26 | – | 0.1 to 1 | CC1CNC(=O)C(Cc2ccc(F)cc2)NC(=O)C(C)N(C)C(=O)C(C2CC2)NCCOc2ccccc2C1 (stereo not drawn) [compound 248]
27 | – | 0.001 to 0.1 | CC1CNC(C2CC2)C(=O)N(C)C(C)C(=O)NC(Cc2ccc(F)cc2)C(=O)NCCCc2ccccc2O1 (stereo not drawn) [compound 244]
